This note sets out measurements from PMC10235986, “Probing differences among Aβ oligomers with two triangular trimers derived from Aβ” (Proceedings of the National Academy of Sciences of the …, 2023).

Assay [1] has as its system SH-SY5Y cells. As to the kind of experiment: Live-cell fluorescence microscopy of HL647-Aβ42 cellular interaction. In kind it is cell-based, human. To be noted: 1 μM HL647-Aβ42, absence of 2AT and KLT, 16 h. The method, then: Fig. 7. The effects of 2AT and KLT on Aβ42 toxicity and cellular interaction (A–D). (A) LDH release assay (B) CellTiter-Glo ATP assay. (C) ApoLive-Glo cell viability assay. (D) ApoLive-Glo caspase-3/7 activation assay. The cell-based assays in A–D were performed by exposing SH-SY5Y cells to 6 μM Aβ42 in the presence of a twofold dilution series of 2AT and KLT for 72 h. All data from the assays are shown as the mean of three technical replicates, with error bars representing the SD. (E–I) Live-cell fluorescence micrographs of SH-SY5Y cells after treatment with 1 μM HiLyte™ Fluor 647-Aβ42 (HL647-Aβ42) in the presence of 0 μM trimer (E) or 2 μM and 4 μM 2AT (F and G) or 2 μM and 4 μM KLT (H and I) for 16 h; (Scale bars, 20 μm.) Fluorescence quantification (FQ), as determined by (total fluorescence of HL647Aβ42)/(total number of cells) is indicated on each micrograph. Dead cells were excluded from the fluorescence quantification analysis and are marked with a white “x”. […]
For these experiments, we exposed SH-SY5Y cells to 1 μM solutions of N-terminally labeled HiLyte™ Fluor 647-Aβ42 (HL647-Aβ42) containing 0 μM, 2 μM, or 4 μM 2AT or KLT and then used live-cell fluorescence microscopy to visualize and quantify HL647-Aβ42 fluorescence on the cells. […]

Assay [2] deals with SH-SY5Y cells. As to the kind of experiment: Toxicity of Aβ42 alone (LDH release, ATP levels, caspase-3/7 activation, cell viability). Format: cell-based, human. The text has this: To investigate the effect of 2AT and KLT on Aβ42 toxicity, we performed a series of cell-based toxicity experiments in which we examined four toxicity markers—LDH release, changes in ATP levels, caspase-3/7 activation, and cell viability—in SH-SY5Y cells exposed to Aβ42 in the absence or presence of 2AT and KLT. We first identified an Aβ42 concentration that elicits significant toxicity in the absence of 2AT and KLT by exposing SH-SY5Y cells to varying concentrations of Aβ42 and then performing the toxicity assays. The toxicity markers establish that Aβ42 elicits significant toxicity at 6 μM (SI Appendix, Fig. S8). […]
Detailed methods are provided in the Supporting Information. […] X-ray diffraction data for KLT and KLTI were collected on a Rigaku Micromax-007HF X-ray diffractometer with a rotating copper anode, and the X-ray crystallographic phases were determined using molecular replacement and SAD phasing. […] Live-cell fluorescence microscopy was performed on SH-SY5Y cells adhered to an Ibidi µ-Slide eight Well Chamber Slide. The cells were imaged using a Keyence BZ-X810 fluorescence microscope and analyzed using the Hybrid Cell Count application in the BZ-X810 Analyzer software. […]

With “HL647-Aβ42: N-terminally labeled HiLyte Fluor 647-Aβ42”, the “cellular localization / uptake of HL647-Aβ42” value in the assay with SH-SY5Y cells [1] is reported as “accumulates as punctate features inside the cells”. As to “Aβ42: full-length β-amyloid peptide Aβ42”, the “concentration that elicits significant toxicity” value in the assay on SH-SY5Y cells [2] was 6 µM.
